Experimental data from PMC7395068, “The evolution of strategies to minimise the risk of human drug-induced liver injury (DILI) in drug discovery and development” (Archives of Toxicology, 2020).
Read-outs that look alike come from different tables or passages of the source.

Assays:
[1] = Plasma free fraction (fu) and unbound Cmax (Cmax,u); type: in vitro ADME, human; settings: unbound plasma Cmax
Description: The prediction of DILI severity was evaluated further using the 3D combined HCI assays using plasma-free fraction. The majority of fu values were obtained from literature, when unavailable in-house prediction was utilised. Unbound plasma Cmax concentrations (Cmax,u) were derived by multiplying total plasma Cmax with the corresponding free fraction (fu) for each compound.

[2] = in vivo; cited from earlier work
[3] = test system: THLE or HepG2 cells, isolated mitochondria, BSEP; settings: cited from earlier work
PHH = settings: cited from earlier work
hLiMTs [4] = settings: cited from earlier work
[5] = read-out: Human plasma Cmax; total plasma Cmax.tot, median of 9 literature references; cited from earlier work
[6] = plasma free fraction; cited from earlier work
[7] = in vivo; cited from earlier work; remark: listed apart in the source
hLiMTs [8] = assay: Combined HCI (HCS) and cellular ATP 3D assay in hLiMTs; settings: for minimal effective concentration / AC50: Homo sapiens; for hLiMTs <25x Avg Cmax ATP / hLiMTs <100x Avg Cmaxu ATP: ATP endpoint; for hLiMTs <25x Avg Cmax ATP / hLiMTs <25x Avg Cmax HCS / hLiMTs <25x Avg Cmax All: cut-off <25x Avg Cmax; for hLiMTs <100x Avg Cmaxu ATP / hLiMTs <100x Avg Cmaxu HCS / hLiMTs <100x Avg Cmaxu All: cut-off <100x Avg Cmaxu; for hLiMTs <25x Avg Cmax HCS / hLiMTs <100x Avg Cmaxu HCS: HCS endpoints; for hLiMTs <25x Avg Cmax All: all endpoints (ATP and HCS); for hLiMTs Cmax max All / hLiMTs Cmax min All / hLiMTs <10 uM All / hLiMTs <100x Avg Cmaxu All: all endpoints; for hLiMTs Cmax max All: Cmax max used; for hLiMTs Cmax min All: Cmax min used; for hLiMTs <10 uM All: cut-off <10 uM
HepaRG spheroids = assay: Combined HCI (HCS) and cellular ATP 3D assay in HepaRG spheroids; settings: for HepaRG <25x Avg Cmax ATP / HepaRG <100x Avg Cmaxu ATP: ATP endpoint; for HepaRG <25x Avg Cmax ATP / HepaRG <25x Avg Cmax HCS / HepaRG <25x Avg Cmax All: cut-off <25x Avg Cmax; for HepaRG <100x Avg Cmaxu ATP / HepaRG <100x Avg Cmaxu HCS / HepaRG <100x Avg Cmaxu All: cut-off <100x Avg Cmaxu; for HepaRG <25x Avg Cmax HCS / HepaRG <100x Avg Cmaxu HCS: HCS endpoints; for HepaRG <25x Avg Cmax All: all endpoints (ATP and HCS); for HepaRG Cmax max All / HepaRG Cmax min All / HepaRG <10 uM All / HepaRG <100x Avg Cmaxu All: all endpoints; for HepaRG Cmax max All: Cmax max used; for HepaRG Cmax min All: Cmax min used; for HepaRG <10 uM All: cut-off <10 uM; for AC50 / minimal effective concentration: Homo sapiens; for HepaRG <25x Avg Cmax ATP / HepaRG <100x Avg Cmaxu ATP / HepaRG <25x Avg Cmax HCS / HepaRG <100x Avg Cmaxu HCS / HepaRG <25x Avg Cmax All / HepaRG Cmax max All / HepaRG Cmax min All / HepaRG <10 uM All / HepaRG <100x Avg Cmaxu All / AC50 / minimal effective concentration: HepaRG
human hepatocytes = settings: In vitro Assay; ref Xu 2008; cited from earlier work
PHH spheroids = settings: In vitro Assay; ref Vorrink 2018; cited from earlier work
[9] = test system: HepG2 cells, primary human hepatocytes; settings: In vitro Assay; ref Garside 2014; cited from earlier work
[10] = test system: isolated mouse liver mitochondria; settings: In vitro Assay; ref Porceddu 2012; cited from earlier work
[11] = In vitro Assay, ref Proctor 2017
[12] = Microtissue model structural based (HCI), combined HCS and ATP, MEC < 25 × Cmax.tot cut-off

Nc1cc(N2CCCCC2)nc(N)[n+]1[O-] [minoxidil]
Human plasma Cmax,u [1]: 1183 nM | DILI +VE (5-8), DILI -VE (-4) [2]: -VE | DILI severity category (Chen 2016) [2]: No | DILI severity category (Chen et al. [2016]) [2]: No | Partition Hybrid HRM Score ≥8, Aleo (2019) [3]: -VE | Rule of Two hybrid HRM Score ≥8, Aleo (2019) [3]: -VE | PHH/100uM, Proctor (2017) (PHH; 2D PHH, ATP, IC50 threshold 100 µM, ref Proctor et al. 2017): -VE | PHH ATP <100uM (PHH; [11]): -VE | hLiMTs ATP <100uM (hLiMTs [4]; [11]): -VE | hLiMTs/100uM, Proctor (2017) (hLiMTs [4]; hLiMTs, ATP, IC50 threshold 100 µM, ref Proctor et al. 2017): -VE | Cmax [5]: 1200 nM | fu [6]: 0.990 | Assigned DILI category [7]: 1 | In vivo DILI [7]: -VE | minimal effective concentration (hLiMTs [8]; read-out: HCS endpoint MEC): 111 µM | DILI prediction hLiMTs (HCS-MEC) (hLiMTs [8]; [12]): -VE | hLiMTs <25x Avg Cmax ATP (hLiMTs [8]): -ve | hLiMTs <100x Avg Cmaxu ATP (hLiMTs [8]): -ve | hLiMTs <25x Avg Cmax HCS (hLiMTs [8]): -ve | hLiMTs <100x Avg Cmaxu HCS (hLiMTs [8]): +ve (<100x Avg Cmaxu) | hLiMTs <25x Avg Cmax All (hLiMTs [8]): -ve | hLiMTs Cmax max All (hLiMTs [8]): -ve | hLiMTs Cmax min All (hLiMTs [8]): -ve | hLiMTs <10 uM All (hLiMTs [8]): -ve | hLiMTs <100x Avg Cmaxu All (hLiMTs [8]): +ve (<100x Avg Cmaxu) | HepaRG <25x Avg Cmax ATP (HepaRG spheroids): -ve | HepaRG <100x Avg Cmaxu ATP (HepaRG spheroids): -ve | HepaRG <25x Avg Cmax HCS (HepaRG spheroids): -ve | HepaRG <100x Avg Cmaxu HCS (HepaRG spheroids): -ve | HepaRG <25x Avg Cmax All (HepaRG spheroids): -ve | HepaRG Cmax max All (HepaRG spheroids): -ve | HepaRG Cmax min All (HepaRG spheroids): -ve | HepaRG <10 uM All (HepaRG spheroids): -ve | HepaRG <100x Avg Cmaxu All (HepaRG spheroids): -ve | DILI prediction HepaRG spheroids (HCS-MEC) (HepaRG spheroids; [12]): -VE

CC/C(=C(\c1ccccc1)c1ccc(OCCN(C)C)cc1)c1ccccc1 [tamoxifen]
Human plasma Cmax,u [1]: 3 nM | Structural based (HCI) (human hepatocytes): -VE | hLiMTs ATP <20 x Cmax (PHH spheroids): +VE (IC20 < 20 × Cmax.tot cut-off) | Cmax [5]: 320 nM | fu [6]: 0.010 | Cluster 1-6 +VE Assay [9]: +VE | in vitro data EC2<=1x Cmax [10]: +VE | in vitro data EC20<=2uM [10]: +VE | AC50 (hLiMTs [8]; read-out: ATP endpoint AC50): 6.13 µM | minimal effective concentration (hLiMTs [8]; read-out: ATP endpoint MEC): 3.93 µM | AC50 (hLiMTs [8]; read-out: HCS endpoint AC50): 7.49 µM | minimal effective concentration (hLiMTs [8]; read-out: HCS endpoint MEC): 1.97 µM | hLiMTs <25x Avg Cmax ATP (hLiMTs [8]): +ve | hLiMTs <100x Avg Cmaxu ATP (hLiMTs [8]): -ve | hLiMTs <25x Avg Cmax HCS (hLiMTs [8]): +ve | hLiMTs <100x Avg Cmaxu HCS (hLiMTs [8]): -ve | hLiMTs <25x Avg Cmax All (hLiMTs [8]): +ve | hLiMTs Cmax max All (hLiMTs [8]): +ve | hLiMTs Cmax min All (hLiMTs [8]): +ve | hLiMTs <10 uM All (hLiMTs [8]): +ve (<10 uM) | hLiMTs <100x Avg Cmaxu All (hLiMTs [8]): -ve | HepaRG <25x Avg Cmax ATP (HepaRG spheroids): -ve | HepaRG <100x Avg Cmaxu ATP (HepaRG spheroids): -ve | HepaRG <25x Avg Cmax HCS (HepaRG spheroids): +ve | HepaRG <100x Avg Cmaxu HCS (HepaRG spheroids): -ve | HepaRG <25x Avg Cmax All (HepaRG spheroids): +ve | HepaRG Cmax max All (HepaRG spheroids): +ve | HepaRG Cmax min All (HepaRG spheroids): +ve | HepaRG <10 uM All (HepaRG spheroids): +ve (<10 uM) | HepaRG <100x Avg Cmaxu All (HepaRG spheroids): -ve | AC50 (HepaRG spheroids; read-out: ATP endpoint AC50): 12.7 µM | minimal effective concentration (HepaRG spheroids; read-out: ATP endpoint MEC): 10.8 µM | AC50 (HepaRG spheroids; read-out: HCS endpoint AC50): 16.7 µM | minimal effective concentration (HepaRG spheroids; read-out: HCS endpoint MEC): 3.52 µM
